Molecular target: T1, human NaPi-IIb (Homo sapiens, UniProt O95436)
T1 construct: expressed in transfected cells
T1 sequence (O95436 1-690): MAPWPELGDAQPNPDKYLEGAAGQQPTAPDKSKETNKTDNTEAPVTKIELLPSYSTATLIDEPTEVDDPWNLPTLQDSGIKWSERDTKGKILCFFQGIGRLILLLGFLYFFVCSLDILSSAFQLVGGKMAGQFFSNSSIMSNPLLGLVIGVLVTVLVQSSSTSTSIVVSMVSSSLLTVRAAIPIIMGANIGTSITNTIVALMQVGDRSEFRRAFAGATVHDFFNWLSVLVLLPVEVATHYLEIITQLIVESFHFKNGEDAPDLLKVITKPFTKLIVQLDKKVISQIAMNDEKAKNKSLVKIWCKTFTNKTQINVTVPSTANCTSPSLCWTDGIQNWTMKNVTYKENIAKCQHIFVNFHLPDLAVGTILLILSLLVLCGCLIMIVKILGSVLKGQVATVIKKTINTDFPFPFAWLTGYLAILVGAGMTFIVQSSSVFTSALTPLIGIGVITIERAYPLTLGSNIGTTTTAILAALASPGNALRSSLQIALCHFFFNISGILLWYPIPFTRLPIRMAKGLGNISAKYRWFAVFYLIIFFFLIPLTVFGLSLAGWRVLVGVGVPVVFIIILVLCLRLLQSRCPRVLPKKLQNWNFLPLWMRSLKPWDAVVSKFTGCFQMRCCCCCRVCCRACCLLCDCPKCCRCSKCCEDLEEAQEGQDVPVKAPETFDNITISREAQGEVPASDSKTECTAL
Experiment: Inhibitory effect on 33PO4 uptake into human NaPi-IIb-expressing CHO cells
Type: cell-based
Conditions: read-out: IC50
Procedure: Test Example 2: Inhibitory Effect on PO4 Uptake into Human NaPi-IIb-Expressing Cell CHO cells were transfected with human NaPi-IIb expression plasmids, and a stably human NaPi-IIb-expressing cell line was obtained using G418. The human NaPi-IIb-expressing cells were inoculated to a 96-well plate and incubated overnight in a CO2 incubator. […] After a given time, a 1/20 volume of buffer A containing ^33PO4 was added thereto and reacted at room temperature. After washing with ice-cold buffer A, a liquid scintillator was added to each reaction mixture, and the amount of ^33PO4 uptake was measured using TopCount.

Compound | IC50 [µM]
CN1N(Cc2cccc(F)c2F)C(=O)C(C(=O)Nc2ccc(C(F)(F)F)cc2-c2cncc(C(F)(F)F)c2)=C(O)C1(C)C [Example 305] | 5.9
C[C@]12CCCN1N(Cc1ccc(C#CCCCCC(=O)O)c(F)c1F)C(=O)C(C(=O)Nc1ccc(C(F)(F)F)cc1-c1cncc(C(F)(F)F)c1)=C2O [Example 119, 7-[4-[[(4aR)-4-Hydroxy-4a-methyl-2-oxo-3-[[4-(trifluoromethyl)-2-[5-(trifluoromethyl)pyridin-3-yl]phenyl]carbamoyl]-6,7-dihydro-5H-pyrrolo[1,2-b]pyridazin-1-yl]methyl]-2,3-difluorophenyl]hept-6-ynoate] | 9.2
COC(=O)CN(C)CCOc1ccc(CN2C(=O)C(C(=O)Nc3ccc(C(F)(F)F)cc3-c3cc(C(F)(F)F)ncn3)=C(O)C3(CCC3)N2C)c(F)c1F [Example 346] | 6.9
C[C@]12CCCN1N(Cc1ccc(OCCN3CCOCC3)c(F)c1F)C(=O)C(C(=O)Nc1ccc(Cl)cc1-c1ccc(C(F)(F)F)nc1)=C2O [Example 102] | 10.9
C[C@]12CCCN1N(Cc1cc(F)cc(F)c1)C(=O)C(C(=O)Nc1cc(F)c(Br)c(F)c1)=C2O [Example 190] | 5.1
C[C@]12CCCN1N(Cc1c(F)cc(C#CCN3CCOCC3)cc1F)C(=O)C(C(=O)Nc1ccc(C(F)(F)F)cc1-c1ccc(C(F)(F)F)nc1)=C2O [Example 132] | 5
C[C@]12CCCN1N(Cc1ccc(CCCOCCCO)c(F)c1F)C(=O)C(C(=O)Nc1ccc(C(F)(F)F)cc1-c1ccc(C(F)(F)F)nc1)=C2O [Example 141] | 7.8
C[C@]12CCCN1N(Cc1c(F)cc(C#CCCCCOC[C@H](O)CO)cc1F)C(=O)C(C(=O)Nc1ccc(C(F)(F)F)cc1-c1ccc(C(F)(F)F)nc1)=C2O [Example 143] | 6.7
C[C@]12CCCN1N(Cc1c(F)cc(OCCCCCOC[C@@H](O)CO)cc1F)C(=O)C(C(=O)Nc1ccc(C(F)(F)F)cc1-c1ccc(C(F)(F)F)nc1)=C2O [Example 153] | 6.2
CN1N(Cc2ccc(C#CCN3CCOCC3)c(F)c2F)C(=O)C(C(=O)Nc2ccc(Cl)cc2-c2cc(C(F)(F)F)ncn2)=C(O)C1(C)C [Example 316] | 14.2
CN1[C@@H](C(C)(C)C)C(O)=C(C(=O)Nc2ccc(C(F)(F)F)cc2-c2ccnc(C#N)c2)C(=O)N1Cc1ccc(OCCN2CCOCC2)c(F)c1F [Example 271] | 17.3
CC(C)[C@H]1C(O)=C(C(=O)Nc2ccc(C(F)(F)F)cc2-c2ccc(C(F)(F)F)nc2)C(=O)N(Cc2ccc(OCCN3CCOCC3)c(F)c2F)N1C [Example 280] | 11.9
Cc1cccc(CN2C(=O)C(C(=O)Nc3ccc(C(F)(F)F)cc3-c3cc(C(F)(F)F)ncn3)=C(O)[C@@]3(C)CCCN23)c1F [Example 215] | 6.2
C[C@]12CCCN1N(Cc1ccccc1F)C(=O)C(C(=O)Nc1ccc(C(F)(F)F)cc1-c1ccc(C(F)(F)F)nc1)=C2O [Example 200] | 1.3
CN1N(Cc2ccc(OCCN3CCOCC3)c(F)c2F)C(=O)C(C(=O)Nc2ccc(Cl)cc2-c2ccc(C(F)(F)F)nc2)=C(O)C12CCCC2 [Example 288] | 11
C[C@@]12CCCN1N(Cc1ccc(OCCN3CCOCC3)c(F)c1F)C(=O)C(C(=O)Nc1ccc(C(F)(F)F)cc1-c1cc(C(F)(F)F)ncn1)=C2O [Example 108] | 26.1

Compound | IC50 [µM]
C[C@]12CCCN1N(Cc1cccc(F)c1F)C(=O)C(C(=O)Nc1ccc(C(F)(F)F)cc1-c1cnc3ccccc3c1)=C2O [Example 83] | 10.6
C[C@]12CCCN1N(Cc1ccc(OC[C@H]3CCCO3)c(F)c1F)C(=O)C(C(=O)Nc1ccc(C(F)(F)F)cc1-c1ccc(C(F)(F)F)nc1)=C2O [Example 160] | 7.3
COc1cc(-c2cc(C(F)(F)F)ccc2NC(=O)C2=C(O)C(C)(C)N(C)N(Cc3cccc(F)c3F)C2=O)cnc1C#N [Example 302] | 7.8
C[C@]12CCCN1N(Cc1cccc(F)c1F)C(=O)C(C(=O)Nc1ccc(C(F)(F)F)cc1-c1cnc(N3CC4(COC4)C3)c(C#N)c1)=C2O [Example 111, (4aR)—N-[2-[5-Cyano-6-(2-oxa-6-azaspiro[3.3]heptan-6-yl)pyridin-3-yl]-4-(trifluoromethyl)phenyl]-1-[(2,3-difluorophenyl)methyl]-4-hydroxy-4a-methyl-2-oxo-6,7-dihydro-5H-pyrrolo[1,2-b]pyridazine-3-carboxamide] | 20
COCCOc1cc(NC(=O)C2=C(O)[C@@]3(C)CCCN3N(Cc3cccc(F)c3F)C2=O)c(-c2cccc(OC)c2OC)cc1C(F)(F)F [Example 92] | 20.2
CCC1(CC)C(O)=C(C(=O)Nc2ccc(Cl)cc2-c2ccc(C(F)(F)F)nc2)C(=O)N(Cc2ccc(OCCN3CCOCC3)c(F)c2F)N1C [Example 294] | 13.4
CN(C)S(=O)(=O)c1ccc(-c2nc(C(F)(F)F)ccc2NC(=O)C2=C(O)[C@@]3(C)CCCN3N(Cc3cccc(F)c3F)C2=O)cc1 [Example 87] | 8.3
CN1[C@@H](C(C)(C)C)C(O)=C(C(=O)Nc2ccc(Cl)cc2-c2cc(C(F)(F)F)ncn2)C(=O)N1Cc1ccc(OCCN2CCOCC2)c(F)c1F [Example 265, (3S)-3-tert-Butyl-N-[4-chloro-2-[6-(trifluoromethyl)pyrimidin-4-yl]phenyl]-1-[[2,3-difluoro-4-(2-morpholin-4-ylethoxy)phenyl]methyl]-4-hydroxy-2-methyl-6-oxo-3H-pyridazine-5-carboxamide] | 13.3
Cc1ccc(CN2C(=O)C(C(=O)Nc3ccc(C(F)(F)F)cc3-c3cc(C(F)(F)F)ncn3)=C(O)[C@@]3(C)CCCN23)cc1 [Example 187] | 6.7
C#Cc1ccc(CN2C(=O)C(C(=O)Nc3ccc(C(F)(F)F)cc3-c3cc(C(F)(F)F)ncn3)=C(O)[C@@]3(C)CCCN23)c(F)c1F [Example 126, (4aR)-1-[(4-Ethynyl-2,3-difluorophenyl)methyl]-4-hydroxy-4a-methyl-2-oxo-N-[4-(trifluoromethyl)-2-[6-(trifluoromethyl)pyrimidin-4-yl]phenyl]-6,7-dihydro-5H-pyrrolo[1,2-b]pyridazine-3-carboxamide] | 5.5
CN1N(Cc2ccc(OCCN3CCOCC3)c(F)c2F)C(=O)C(C(=O)Nc2ccc(C(F)(F)F)cc2-c2cc(C(F)(F)F)ncn2)=C(O)C12CCCC2 [Example 318, 7-[[2,3-Difluoro-4-(2-morpholin-4-ylethoxy)phenyl]methyl]-10-hydroxy-6-methyl-8-oxo-N-[4-(trifluoromethyl)-2-[6-(trifluoromethyl)pyrimidin-4-yl]phenyl]-6,7-diazaspiro[4.5]dec-9-ene-9-carboxamide] | 8.6
C[C@]12CCCN1N(Cc1cccc(Cl)c1F)C(=O)C(C(=O)Nc1ccc(C(F)(F)F)cc1-c1ccc(C(F)(F)F)nc1)=C2O [Example 198] | 2.4
C[C@]12CCCN1N(Cc1c(F)cc(OCCCCCCOC[C@H](O)CO)cc1F)C(=O)C(C(=O)Nc1ccc(C(F)(F)F)cc1-c1ccc(C(F)(F)F)nc1)=C2O [Example 155] | 2.3
CN1N(Cc2cccc(F)c2F)C(=O)C(C(=O)Nc2ccc(Cl)cc2-c2ccc(C(F)(F)F)nc2)=C(O)C12CCC2 [Example 256] | 4.4
CCC1(CC)C(O)=C(C(=O)Nc2ccc(Cl)cc2-c2cc(C(F)(F)F)ncn2)C(=O)N(Cc2ccc(OCCN3CCOCC3)c(F)c2F)N1C [Example 292] | 18.4

Same assay, conditions: read-out: IC50 against 33PO4 uptake into human NaPi-IIb-expressing cells

Compound | IC50 [µM]
CN1CCC(Oc2ccc(CN3C(=O)C(C(=O)Nc4ccc(C(F)(F)F)cc4-c4cc(C(F)(F)F)ncn4)=C(O)C4(CCC4)N3C)c(F)c2F)CC1 [Example 411] | 12.8
CN1N(Cc2ccc(OCCCCOCCCO)c(F)c2F)C(=O)C(C(=O)Nc2ccc(C(F)(F)F)cc2-c2cc(C(F)(F)F)ncn2)=C(O)C12CCCC2 [Example 399] | 7.8
COCCN(C)CCOCCOCCOc1ccc(CN2C(=O)C(C(=O)Nc3ccc(C(F)(F)F)cc3-c3cc(C(F)(F)F)ncn3)=C(O)C3(CCCC3)N2C)c(F)c1F [Example 430] | 4.6
CN1N(Cc2ccc(OCCN3CCOCC3(C)C)c(F)c2F)C(=O)C(C(=O)Nc2ccc(C(F)(F)F)cc2-c2cc(C(F)(F)F)ncn2)=C(O)C12CCCC2 [Example 371] | 8.5
COCCN1CCC[C@H]1COc1ccc(CN2C(=O)C(C(=O)Nc3ccc(C(F)(F)F)cc3-c3cc(C(F)(F)F)ncn3)=C(O)C3(CCC3)N2C)c(F)c1F [Example 404, 6-[[2,3-Difluoro-4-[[(2S)-1-(2-methoxyethyl)pyrrolidin-2-yl]methoxy]phenyl]methyl]-9-hydroxy-5-methyl-7-oxo-N-[4-(trifluoromethyl)-2-[6-(trifluoromethyl)pyrimidin-4-yl]phenyl]-5,6-diazaspiro[3.5]non-8-ene-8-carboxamide] | 10.1

Reference: patent US9499553B2 (CHUGAI SEIYAKU KABUSHIKI KAISHA, priority 2013, dated 2016)
